Measured values reported in ChEMBL document CHEMBL1201862, “PubChem BioAssay data set” (2004).
Active and inactive are the calls of the source.

Key:
[1] = biological target: Peroxisome proliferator-activated receptor gamma/Nuclear receptor coactivator 1 (Homo sapiens, UniProt P37231); assay: TR-FRET dose response biochemical High Throughput Screening assay for agonists of the steroid receptor coactivator 1 (SRC-1) recruitment by the peroxisome proliferator-activated receptor gamma (PPAR gamma): non-selective agonists. [Related pubchem assays (depositor defined):AID1300, AID1808, AID504735, AID631]; format: protein assay
[2] = biological target: Peroxisome proliferator-activated receptor gamma/Nuclear receptor coactivator 2 (Homo sapiens, UniProt P37231); assay: (§1) TR-FRET dose response biochemical High Throughput Screening assay for agonists of the steroid receptor coactivator 2 (SRC-2) recruitment by the peroxisome proliferator-activated receptor gamma (PPAR gamma): non-selective agonists. [Related pubchem assays: 1297, 1032 ]; format: functional
Sequence of Peroxisome proliferator-activated receptor gamma/Nuclear receptor coactivator 2 (P37231 whole entry): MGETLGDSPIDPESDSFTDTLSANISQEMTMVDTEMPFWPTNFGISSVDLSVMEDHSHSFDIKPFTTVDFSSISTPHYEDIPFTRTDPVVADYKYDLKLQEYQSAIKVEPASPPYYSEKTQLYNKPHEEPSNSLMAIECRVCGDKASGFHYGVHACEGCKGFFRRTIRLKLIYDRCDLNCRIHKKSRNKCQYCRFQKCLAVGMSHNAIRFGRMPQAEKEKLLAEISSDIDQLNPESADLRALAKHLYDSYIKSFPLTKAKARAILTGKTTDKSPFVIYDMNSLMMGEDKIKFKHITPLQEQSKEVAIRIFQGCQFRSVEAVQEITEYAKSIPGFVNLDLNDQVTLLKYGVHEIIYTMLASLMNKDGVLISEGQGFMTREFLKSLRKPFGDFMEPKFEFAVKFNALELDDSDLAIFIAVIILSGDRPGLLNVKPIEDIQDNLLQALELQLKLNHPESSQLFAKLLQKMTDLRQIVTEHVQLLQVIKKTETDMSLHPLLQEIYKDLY
Sequence of Peroxisome proliferator-activated receptor gamma/Nuclear receptor coactivator 2 (Q15596 whole entry, further chain): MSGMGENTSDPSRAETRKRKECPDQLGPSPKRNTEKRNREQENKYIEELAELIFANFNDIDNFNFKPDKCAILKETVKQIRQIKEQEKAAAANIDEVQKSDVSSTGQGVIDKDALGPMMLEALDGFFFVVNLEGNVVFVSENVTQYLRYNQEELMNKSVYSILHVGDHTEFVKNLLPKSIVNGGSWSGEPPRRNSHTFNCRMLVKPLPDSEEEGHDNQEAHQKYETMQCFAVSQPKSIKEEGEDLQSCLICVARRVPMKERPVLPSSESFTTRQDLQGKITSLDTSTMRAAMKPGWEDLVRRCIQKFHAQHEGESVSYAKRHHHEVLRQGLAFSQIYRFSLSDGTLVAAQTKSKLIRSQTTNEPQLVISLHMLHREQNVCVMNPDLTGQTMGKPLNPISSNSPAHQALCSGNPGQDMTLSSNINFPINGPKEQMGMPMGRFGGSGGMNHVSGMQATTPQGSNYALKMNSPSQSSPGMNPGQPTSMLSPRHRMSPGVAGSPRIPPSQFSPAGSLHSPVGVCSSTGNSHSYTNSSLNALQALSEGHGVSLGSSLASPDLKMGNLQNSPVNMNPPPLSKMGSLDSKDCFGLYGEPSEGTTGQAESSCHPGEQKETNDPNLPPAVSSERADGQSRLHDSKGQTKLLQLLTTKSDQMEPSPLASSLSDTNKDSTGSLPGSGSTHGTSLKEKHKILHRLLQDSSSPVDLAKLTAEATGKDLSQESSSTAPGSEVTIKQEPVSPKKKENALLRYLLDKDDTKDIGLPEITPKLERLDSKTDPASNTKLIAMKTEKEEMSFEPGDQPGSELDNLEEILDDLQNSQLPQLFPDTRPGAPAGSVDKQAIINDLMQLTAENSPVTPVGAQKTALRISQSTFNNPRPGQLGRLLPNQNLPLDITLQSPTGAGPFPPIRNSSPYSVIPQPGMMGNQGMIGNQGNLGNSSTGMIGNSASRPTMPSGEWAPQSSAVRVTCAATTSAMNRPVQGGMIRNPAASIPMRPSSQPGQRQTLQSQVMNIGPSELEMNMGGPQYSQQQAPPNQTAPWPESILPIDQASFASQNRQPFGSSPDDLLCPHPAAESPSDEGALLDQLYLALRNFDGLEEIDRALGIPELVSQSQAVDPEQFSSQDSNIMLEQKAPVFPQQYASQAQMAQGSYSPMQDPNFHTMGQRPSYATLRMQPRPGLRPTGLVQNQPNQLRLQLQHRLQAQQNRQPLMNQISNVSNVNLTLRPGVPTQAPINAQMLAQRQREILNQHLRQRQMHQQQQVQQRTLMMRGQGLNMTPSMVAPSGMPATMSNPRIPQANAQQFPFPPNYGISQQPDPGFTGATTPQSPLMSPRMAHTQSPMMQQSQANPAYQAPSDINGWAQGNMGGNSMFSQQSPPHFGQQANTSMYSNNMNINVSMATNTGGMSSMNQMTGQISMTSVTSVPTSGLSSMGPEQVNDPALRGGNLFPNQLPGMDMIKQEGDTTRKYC

[3] = biological target: Peroxisome proliferator-activated receptor gamma/Nuclear receptor coactivator 3 (Homo sapiens, UniProt P37231); assay: as §1, with “3 (SRC-3)” for “2 (SRC-2)”, “1301 (Confirmation screen.), 1048 (Primary screen.)]” for “1297, 1032 ]”; format: functional
Sequence of Peroxisome proliferator-activated receptor gamma/Nuclear receptor coactivator 3 (P37231 whole entry): as the sequence (P37231 whole entry) above
Sequence of Peroxisome proliferator-activated receptor gamma/Nuclear receptor coactivator 3 (Q9Y6Q9 whole entry, further chain): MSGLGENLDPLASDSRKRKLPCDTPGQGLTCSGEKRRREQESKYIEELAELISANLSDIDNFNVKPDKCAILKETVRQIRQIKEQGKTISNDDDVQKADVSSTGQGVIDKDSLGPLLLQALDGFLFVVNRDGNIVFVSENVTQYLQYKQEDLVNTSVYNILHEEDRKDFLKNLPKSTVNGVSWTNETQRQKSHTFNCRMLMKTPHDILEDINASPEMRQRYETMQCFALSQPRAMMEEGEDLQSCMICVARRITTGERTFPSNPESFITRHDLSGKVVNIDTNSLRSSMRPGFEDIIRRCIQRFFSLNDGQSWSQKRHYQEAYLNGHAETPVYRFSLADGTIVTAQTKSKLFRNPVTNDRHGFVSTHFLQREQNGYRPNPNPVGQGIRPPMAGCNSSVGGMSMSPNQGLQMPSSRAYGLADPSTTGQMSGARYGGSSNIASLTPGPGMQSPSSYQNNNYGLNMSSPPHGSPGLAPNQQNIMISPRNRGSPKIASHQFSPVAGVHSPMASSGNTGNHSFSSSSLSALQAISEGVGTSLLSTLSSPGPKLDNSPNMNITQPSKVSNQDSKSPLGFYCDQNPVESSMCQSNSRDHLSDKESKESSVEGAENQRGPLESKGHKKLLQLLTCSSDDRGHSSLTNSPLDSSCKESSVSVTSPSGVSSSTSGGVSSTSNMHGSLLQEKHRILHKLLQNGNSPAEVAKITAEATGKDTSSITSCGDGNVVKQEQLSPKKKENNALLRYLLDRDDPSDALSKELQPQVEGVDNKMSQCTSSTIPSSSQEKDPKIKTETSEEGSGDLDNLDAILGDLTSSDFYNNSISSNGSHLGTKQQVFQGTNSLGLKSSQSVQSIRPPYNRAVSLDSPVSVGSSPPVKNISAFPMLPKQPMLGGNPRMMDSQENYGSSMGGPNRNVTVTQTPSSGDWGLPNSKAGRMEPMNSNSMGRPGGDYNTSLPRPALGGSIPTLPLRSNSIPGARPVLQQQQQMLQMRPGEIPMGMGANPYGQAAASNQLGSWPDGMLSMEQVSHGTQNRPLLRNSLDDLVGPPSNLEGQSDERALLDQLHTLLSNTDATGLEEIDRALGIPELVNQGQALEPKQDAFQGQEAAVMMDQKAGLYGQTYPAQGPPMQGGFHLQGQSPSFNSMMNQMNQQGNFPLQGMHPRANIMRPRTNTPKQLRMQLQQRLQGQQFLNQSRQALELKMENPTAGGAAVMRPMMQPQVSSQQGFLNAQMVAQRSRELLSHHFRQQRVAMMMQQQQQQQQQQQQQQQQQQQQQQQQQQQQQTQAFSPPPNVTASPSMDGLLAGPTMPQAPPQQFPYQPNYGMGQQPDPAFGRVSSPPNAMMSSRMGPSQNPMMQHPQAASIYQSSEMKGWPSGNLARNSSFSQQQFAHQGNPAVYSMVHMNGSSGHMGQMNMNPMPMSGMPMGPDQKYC

[4] = biological target: Paired box protein Pax-8 (Homo sapiens, UniProt Q06710); assay: PAX8 transcriptional activity inhibition in RMG-I – RMG-I cells, luciferase, cherry-pick, dose response (AID 687027); format: functional, cell-based;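 further: luciferase reporter driven by Pax8 target thyroperoxidase promoter measured by SteadyGlo luminescence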
Sequence of Paired box protein Pax-8 (Q06710 whole entry): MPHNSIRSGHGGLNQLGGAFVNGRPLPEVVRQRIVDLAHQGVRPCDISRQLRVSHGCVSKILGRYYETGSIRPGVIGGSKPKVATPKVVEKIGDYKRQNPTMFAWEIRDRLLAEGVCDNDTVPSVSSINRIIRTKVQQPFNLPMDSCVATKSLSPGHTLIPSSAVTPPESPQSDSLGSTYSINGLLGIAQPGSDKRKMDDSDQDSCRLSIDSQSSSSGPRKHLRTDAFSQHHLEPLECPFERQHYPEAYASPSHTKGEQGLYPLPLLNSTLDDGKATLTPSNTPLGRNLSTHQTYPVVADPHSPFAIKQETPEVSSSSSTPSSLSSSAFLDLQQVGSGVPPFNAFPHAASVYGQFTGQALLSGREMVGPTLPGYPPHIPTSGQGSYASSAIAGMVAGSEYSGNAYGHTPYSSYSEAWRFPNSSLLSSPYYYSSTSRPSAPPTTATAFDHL

[5] = system: INS1; assay: INS-1E survival protection against cytokine death – cell-based, luminescence, retest, dose response (AID 449756); format: functional; settings: Rattus norvegicus;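 further: cell death triggered by IL-1 beta plus TNF-alpha plus IFN-gamma mixture; protective hits raise ATP signal compared with cytokine alone wells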
[6] = biological target: T1, Microphthalmia-associated transcription factor (Homo sapiens, UniProt O75030); assay: reducers of TRPM1 reporter luminescence, concentration series – cell-based, SK-MEL-5, cherry-picked, set 3, MITF inhibitor project, dose response (AID 493073); format: functional;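 further: SK-MEL-5 melanoma cells with luciferase driven by the MITF target TRPM1 promoter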
T1 sequence (O75030 whole entry): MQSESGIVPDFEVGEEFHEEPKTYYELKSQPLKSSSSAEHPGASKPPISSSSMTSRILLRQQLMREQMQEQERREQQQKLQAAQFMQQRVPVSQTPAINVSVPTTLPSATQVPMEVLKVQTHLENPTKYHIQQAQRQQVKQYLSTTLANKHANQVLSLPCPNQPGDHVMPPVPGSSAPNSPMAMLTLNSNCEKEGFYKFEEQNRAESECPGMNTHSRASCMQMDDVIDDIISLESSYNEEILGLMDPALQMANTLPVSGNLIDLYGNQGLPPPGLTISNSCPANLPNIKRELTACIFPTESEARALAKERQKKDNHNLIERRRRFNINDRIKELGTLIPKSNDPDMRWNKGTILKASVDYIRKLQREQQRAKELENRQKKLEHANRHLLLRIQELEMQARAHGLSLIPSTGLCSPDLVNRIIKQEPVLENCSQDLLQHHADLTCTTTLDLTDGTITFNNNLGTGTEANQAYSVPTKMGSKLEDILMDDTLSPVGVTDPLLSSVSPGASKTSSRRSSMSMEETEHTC

[7] = viability of HCT116 lacking mutant beta-catenin – cell-based, human colon tumor, dose response (AID 1045); format: functional;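 further: HCT116 colon tumor cells with beta catenin knocked out; cells exposed to compound for 60 hours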
[8] = Luminescence Cell-Based Dose Retest to Confirm Inhibitors of Cancer Stem Cells. [Related pubchem assays (depositor defined):AID2717, AID2721]; format: functional; settings: Homo sapiens
[9] = viability of PTEN-deleted HCT116 cells – cell-based, HCT116 PTEN knockout, dose response (AID 1047); format: functional;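 further: HCT116 colon tumor cells with PTEN knocked out; cells exposed to compound for 60 hours before readout; potency for loss of cell viability measured by luminescence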
[10] = cAMP pathway inhibition in counterscreen cell line – TR-FRET cAMP detection, counter-screen for MC4R biased antagonist project, dose response (AID 602305); format: functional, cell-based;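 further: U2OS cells stimulated with forskolin near its EC80 as the cAMP inducer; potency is for inhibition of forskolin-stimulated cAMP signaling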
[11] = Trypanosoma cruzi growth suppression in host cells – NIH3T3 host cells, beta-gal luminescence, confirmation (AID 2044); format: functional, cell-based;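 further: intracellular parasites grown in NIH/3T3 mouse fibroblasts as host cells; luminescent beta-galactosidase reporter signal from transgenic T. cruzi replicating inside host cells; inhibitors lower the luminescence signal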
[12] = biological target: Melanocortin receptor 4 (Homo sapiens, UniProt P32245); assay: inhibitors of MC4R cAMP signaling – cell-based, TR-FRET, biased antagonists, dose response (AID 602298); format: functional;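 further: antagonist potency against agonist-stimulated cAMP production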
Sequence of Melanocortin receptor 4 (P32245 whole entry): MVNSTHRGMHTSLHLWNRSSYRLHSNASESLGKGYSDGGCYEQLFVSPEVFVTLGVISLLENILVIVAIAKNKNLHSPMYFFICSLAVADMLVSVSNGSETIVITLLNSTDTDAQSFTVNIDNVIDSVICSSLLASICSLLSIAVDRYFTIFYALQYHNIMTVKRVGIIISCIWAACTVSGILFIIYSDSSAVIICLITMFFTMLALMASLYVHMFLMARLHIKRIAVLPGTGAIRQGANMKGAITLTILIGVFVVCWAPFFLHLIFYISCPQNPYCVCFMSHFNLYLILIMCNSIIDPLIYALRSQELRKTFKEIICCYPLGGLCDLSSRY

[13] = NIH3T3 cell viability loss – ATP luminescence, mouse fibroblasts, counter-screen, dose response (AID 2010); format: functional, cell-based;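 further: cells exposed to compound for about 90 hours before reading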
[14] = biological target: T2, Protein skinhead-1 (Caenorhabditis elegans, UniProt P34707); format: functional
T2 sequence (P34707 whole entry): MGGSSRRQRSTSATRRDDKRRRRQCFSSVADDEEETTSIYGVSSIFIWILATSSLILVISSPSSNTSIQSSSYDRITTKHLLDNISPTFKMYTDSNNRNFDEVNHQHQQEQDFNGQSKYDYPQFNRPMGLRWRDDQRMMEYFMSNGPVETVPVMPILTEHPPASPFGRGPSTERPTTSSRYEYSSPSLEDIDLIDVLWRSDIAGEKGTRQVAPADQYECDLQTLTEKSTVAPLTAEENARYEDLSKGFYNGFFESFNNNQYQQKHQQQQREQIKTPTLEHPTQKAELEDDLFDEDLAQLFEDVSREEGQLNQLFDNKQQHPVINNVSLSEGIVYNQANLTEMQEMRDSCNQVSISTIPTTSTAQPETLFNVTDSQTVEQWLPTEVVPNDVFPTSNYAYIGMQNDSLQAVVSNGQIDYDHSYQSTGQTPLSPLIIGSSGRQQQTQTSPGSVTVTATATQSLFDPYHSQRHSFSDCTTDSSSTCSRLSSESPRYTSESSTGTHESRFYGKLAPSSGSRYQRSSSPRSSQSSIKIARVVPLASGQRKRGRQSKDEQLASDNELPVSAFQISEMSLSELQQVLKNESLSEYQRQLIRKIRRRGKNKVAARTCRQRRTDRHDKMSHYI

[15] = biological target: T3, Short transient receptor potential channel 4 (Mus musculus, UniProt Q9QUQ5); assay: block of DAMGO-driven TRPC4 calcium entry – cell-based, HEK293 TRPC4/mu-opioid, Fluo-4 calcium, dose response (AID 434942); format: functional;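 further: potency of inhibitors blocking the TRPC4 calcium response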
T3 sequence (Q9QUQ5 whole entry): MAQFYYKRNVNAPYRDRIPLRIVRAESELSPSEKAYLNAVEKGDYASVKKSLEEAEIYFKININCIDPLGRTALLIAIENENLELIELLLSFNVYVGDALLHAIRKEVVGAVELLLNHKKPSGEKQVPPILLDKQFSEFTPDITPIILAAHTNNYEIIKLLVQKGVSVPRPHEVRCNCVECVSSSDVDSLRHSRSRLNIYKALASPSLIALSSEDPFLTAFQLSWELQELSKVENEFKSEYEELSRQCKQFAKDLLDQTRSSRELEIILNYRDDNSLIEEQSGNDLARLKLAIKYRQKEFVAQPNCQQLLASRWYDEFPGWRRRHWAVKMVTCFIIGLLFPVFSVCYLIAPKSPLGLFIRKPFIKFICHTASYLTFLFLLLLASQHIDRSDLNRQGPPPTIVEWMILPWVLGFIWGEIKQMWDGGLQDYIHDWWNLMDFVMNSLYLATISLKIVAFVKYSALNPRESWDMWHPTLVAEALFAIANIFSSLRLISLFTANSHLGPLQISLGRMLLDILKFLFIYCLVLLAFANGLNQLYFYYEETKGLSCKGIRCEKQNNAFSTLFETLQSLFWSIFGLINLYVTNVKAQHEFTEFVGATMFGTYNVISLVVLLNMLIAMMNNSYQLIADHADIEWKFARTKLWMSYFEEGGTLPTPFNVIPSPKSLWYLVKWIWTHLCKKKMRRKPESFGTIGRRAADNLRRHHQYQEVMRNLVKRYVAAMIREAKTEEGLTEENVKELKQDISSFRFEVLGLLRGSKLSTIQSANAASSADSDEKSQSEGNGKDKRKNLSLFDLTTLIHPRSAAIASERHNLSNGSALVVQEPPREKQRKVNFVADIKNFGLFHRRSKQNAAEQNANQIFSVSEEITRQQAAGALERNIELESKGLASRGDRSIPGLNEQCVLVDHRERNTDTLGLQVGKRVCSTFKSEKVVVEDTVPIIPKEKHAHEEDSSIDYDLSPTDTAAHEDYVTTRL

[16] = system: Streptococcus sp. 'group A'; assay: Streptococcus pyogenes SK(-)GAS viability under kanamycin – luminescence, BacTiterGlo, confirmation, counter-screen for streptokinase expression inhibitor project, dose response (AID 1900); format: functional, organism-based
[17] = system: Streptococcus; assay: GAS UMAA2166 growth inhibition – luminescence, BacTiterGlo, counter-screen for streptokinase expression inhibitor project, dose response (AID 1915); format: functional, organism-based;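 further: potency for reduction of bacterial viability or growth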
[18] = biological target: T4, Streptokinase A (Streptococcus pyogenes serotype M1, UniProt P10520); assay: viability-normalized secreted streptokinase activity reduction – plasminogen activation absorbance, OD405, dose response (AID 1914); format: functional, Streptococcus pyogenes M1 GAS;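 further: secreted streptokinase activity via plasminogen activation per viability signal from cell pellet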
T4 sequence (P10520 whole entry): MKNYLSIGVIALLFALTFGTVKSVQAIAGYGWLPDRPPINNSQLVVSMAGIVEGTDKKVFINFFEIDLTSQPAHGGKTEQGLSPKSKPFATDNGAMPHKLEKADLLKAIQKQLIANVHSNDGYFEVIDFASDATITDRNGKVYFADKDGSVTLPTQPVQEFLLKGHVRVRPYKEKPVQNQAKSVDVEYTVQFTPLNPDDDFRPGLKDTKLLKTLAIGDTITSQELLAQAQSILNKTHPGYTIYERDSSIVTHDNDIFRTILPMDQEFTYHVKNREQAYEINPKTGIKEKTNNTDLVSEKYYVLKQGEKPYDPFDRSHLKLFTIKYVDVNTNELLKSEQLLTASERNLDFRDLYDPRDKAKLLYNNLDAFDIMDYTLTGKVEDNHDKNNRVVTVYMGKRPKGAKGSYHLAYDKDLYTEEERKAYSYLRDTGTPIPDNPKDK

[19] = Luminescence Cell-Based Dose Response HTS to Identify Inhibitors of 5'UTR Stem-Loop Driven Prion Protein mRNA Translation in H4 Neuroglioblastoma Cells. [Related pubchem assays: 1827 (Project Summary), 1813 (Primary HTS)]; format: functional
[20] = HEK-293T viability loss after treatment – luminescence, T-cell screen hits, cytotoxicity control for TCR NF-kB inhibitor project, dose response (AID 489026); format: functional, cell-based;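 further: cells exposed to compound about 14 hours before the viability readout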
[21] = alpha-synuclein stem-loop luciferase translation blockers – H4 neuroglioma cells, luminescence, confirmation (AID 1988); format: functional, cell-based
[22] = luciferase reporter signal suppression in cells – H4 neuroglioma cells, luminescence, dose response (AID 1990); format: functional, cell-based
[23] = cells; format: functional, cell-based
[24] = cells; format: functional, cell-based; remark: listed apart in the source

In the case of CSc1oc(-c2ccccc2)nc1S(=O)(=O)c1ccc(C)cc1, the EC50 [1] is reported as > 79.4 µM (inactive), the EC50 [2] is reported as > 79.4 µM (not active) and the EC50 [3] is reported as > 79.4 µM (not active).
In the case of Cc1ccc(NC(=O)/C=C/c2ccc([N+](=O)[O-])s2)c(C)c1, the AC50 [4] is reported as 3.16 µM (active), the AC50 [5] is reported as 4.69 µM (active) and the AC50 [6] is reported as 4.64 µM (active). For the same compound, the EC50 [7] was 1 µM (active), the AC50 [8] was 1.3 µM (active) and the EC50 [9] was 1.03 µM (active).
With Cc1nnc(-c2cccc(Br)c2)c2cn(-c3cccc(Br)c3)nc12 the IC50 [10] was > 64.6 µM (inactive), the EC50 [11] was 1.65 µM (active) and the IC50 [12] was > 64.6 µM (inactive). For the same compound, the EC50 [13] was > 60 µM (not active) and the IC50 [14] was > 100 µM (inactive).
In the case of COCC(C)NC(C(=O)Nc1ccc(Cl)c([N+](=O)[O-])c1)c1ccccc1 (stereo unspecified), the EC50 [15] is reported as 5.96 µM (active).
For O=C(Nc1nccs1)c1cc(S(=O)(=O)N2CCOCC2)c(Cl)cc1Cl, the IC50 [10] was > 64.6 µM (inactive) and the IC50 [12] was > 64.6 µM (inactive).
In the case of CSc1c(SCc2ccccc2)cnn(Cc2ccccc2)c1=O, the EC50 [1] is reported as 2.68 µM (active), the EC50 [2] is reported as 8.09 µM (active) and the EC50 [16] is reported as 3.38 µM (active). The EC50 [17] was 34.3 µM (active), the EC50 [3] was > 79.4 µM (not active) and the EC50 [18] was > 150 µM (not active).
In the case of CC1CCN(c2c(NCc3ccc(C(=O)N4CCc5ccccc54)cc3)c(=O)c2=O)CC1, the EC50 [19] is reported as 12.3 µM (active), the IC50 [20] is reported as > 80 µM (inactive) and the EC50 [21] is reported as 8.86 µM (active). For the same compound, the EC50 [22] was > 60 µM (not active).
In the case of O=C(COC(=O)C(Cc1ccccc1)NC(=O)c1cccs1)NCc1ccccc1 (stereo unspecified), the IC50 [10] is reported as > 64.6 µM (inactive) and the IC50 [12] is reported as 38.6 µM (inactive).
In the case of O=C(N/N=C\c1cc(Br)ccc1O)c1ccc(S(=O)(=O)N2CCCCC2)cc1, the AC50 [5] is reported as 0.809 µM (active), the EC50 [11] is reported as 0.758 µM (active) and the AC50 [6] is reported as 1.78 µM (active). The EC50 [23] was > 350 µM (not active), the EC50 [13] was > 60 µM (not active) and the EC50 [24] was > 350 µM (not active). The AC50 [8] was 1.8 µM (active).
